From article PMC8750417, “Intracellular Amplifiers of Reactive Oxygen Species Affecting Mitochondria as Radiosensitizers” (Cancers, 2021)

Columns and labels:
A2780 cells [1] = assay: Generation of nitric oxide (DAF-FM diacetate), A2780; type: cell-based, human; conditions: 2 h
Procedure: with CO2 (5%) at 37 °C for 2 h. Next, the cells were detached from the culture dish using trypsin/EDTA (0.025%/0.01%, v/v, 200 µL). The cells were re-suspended in RPMI 1640 medium containing 5% FBS, 1% L-glutamine and 1% penicillin/streptomycin (200 µL).
Finally, the fluorescence of live cells (λex = 488 nm, λem = 530 nm) in the suspensions was determined by using flow cytometry (Figure 4C).
Figure S61. Representative flow cytometric histograms used for setting up Figure 4C.
Generation of nitric oxide in A2780 cells
A2780 cells were seeded into 96 well culture plates at the same cell concentration and in the same medium as applied for the assay for monitoring mROS described above. On the day of the experiment, the cells were washed twice with DPBS buffer and the medium was replaced with HBSS (100 μL). […]
The cells were re-suspended in RPMI 1640 medium containing 5% FBS, 1% L-glutamine and 1% penicillin/streptomycin (100 µL). Finally, the fluorescence of live cells (λex = 488 nm, λem = 530 nm) in the suspensions was determined by using flow cytometry (Figure […]
Figure S62. Fluorescence of DAF-FM diacetate-loaded A2780 cells treated either with 2c or the carrier. *: p<0.05, Student’s t test. […]

A2780 cells [2] = tested on: A2780 cells; set-up: method as in PMID 30035345; conditions: relative to 4-(N-ferrocenyl-N-benzylaminocarbonyloxymethyl)-phenylboronic acid pinacol ester; cited from earlier work

Structure (SMILES) | level of NO vs carrier (A2780 cells [1]) | efficacy of cellular uptake relative to reference NAAF prodrug (A2780 cells [2])
CC1(C)OB(c2ccc(COC(=O)N(Cc3cn(Cc4ccc(Cn5cc(Cc6ccccc6)nn5)cc4)nn3)[c-]3cccc3)cc2)OC1(C)C.[Fe+2].c1cc[cH-]c1 [2c] | higher than that in A2780 cells treated with DMSO (carrier) only | –
CCOC(=O)CCCCCn1cc(CN(C(=O)OCc2ccc(B3OC(C)(C)C(C)(C)O3)cc2)[c-]2cccc2)nn1.[Fe+2].c1cc[cH-]c1 [compound 1] | – | ca. 50%
